Data published in the supplement of paper PMC10307832.

What was measured:
Assay in all cases: relative viability (nuclei count vs DMSO), 5 days (fraction); higher = more cells survive
NCI-H1793 = tested on: NCI-H1793
How it was run: (§1)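 Lung cancer cell lines, seeded in 1536-well plates, were treated the following day by pin tool with a single drug or with five library-drug doses (not always all listed) in √10 steps on top of a fixed anchor-drug dose. Cells were fixed and nuclei stained in one step after 5 days, and nuclei were counted. Relative viability is the nuclei count for treated wells divided by that for vehicle wells, reported as medians of duplicate plates.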

LC-2-ad = tested on: LC-2-ad
How it was run: as §1

CAL-12T = tested on: CAL-12T
How it was run: as §1

NCI-H460 = tested on: NCI-H460
How it was run: as §1

LOU-NH91 = tested on: LOU-NH91
How it was run: as §1

UMC-11 = tested on: UMC-11
How it was run: as §1

ABC-1 = tested on: ABC-1
How it was run: as §1

NCI-H3122 = tested on: NCI-H3122
How it was run: as §1

NCI-H1651 = tested on: NCI-H1651
How it was run: as §1

NCI-H1944 = tested on: NCI-H1944
How it was run: as §1

HCC-78 = tested on: HCC-78
How it was run: as §1

NCI-H2405 = tested on: NCI-H2405
How it was run: as §1

HCC-366 = tested on: HCC-366
How it was run: as §1

NCI-H2228 = tested on: NCI-H2228
How it was run: as §1

LU99A = tested on: LU99A
How it was run: as §1

NCI-H1395 = tested on: NCI-H1395
How it was run: as §1

PC-3 [JPC-3] = tested on: PC-3 [JPC-3]
How it was run: as §1

NCI-H1755 = tested on: NCI-H1755
How it was run: as §1

NCI-H2087 = tested on: NCI-H2087
How it was run: as §1

RERF-LC-KJ = tested on: RERF-LC-KJ
How it was run: as §1

In the case of Nc1ccn([C@@H]2O[C@H](CO)[C@@H](O)[C@@H]2O)c(=O)n1 [Cytarabine] + C[C@]1(O)C[C@@H](c2nc(-c3ccc4ccc(-c5ccccc5)nc4c3)c3c(N)nccn32)C1 [Linsitinib] (partner 1 µM), the relative viability (NCI-H1793; first compound 0.005 µM) is reported as 0.941, the relative viability (NCI-H1793; first compound 0.01581 µM) is reported as 0.899 and the relative viability (NCI-H1793; first compound 0.05 µM) is reported as 0.89. The relative viability (NCI-H1793; first compound 0.1581 µM) was 0.732, the relative viability (NCI-H1793; first compound 0.5 µM) was 0.391 and the relative viability (LC-2-ad; first compound 0.005 µM) was 0.851. The relative viability (LC-2-ad; first compound 0.01581 µM) was 0.79, the relative viability (LC-2-ad; first compound 0.05 µM) was 0.677 and the relative viability (LC-2-ad; first compound 0.1581 µM) was 0.442. It also gave a relative viability (LC-2-ad; first compound 0.5 µM) of 0.223, a relative viability (CAL-12T; first compound 0.005 µM) of 0.72 and a relative viability (CAL-12T; first compound 0.01581 µM) of 0.878. It also gave a relative viability (CAL-12T; first compound 0.05 µM) of 0.747, a relative viability (CAL-12T; first compound 0.1581 µM) of 0.39 and a relative viability (CAL-12T; first compound 0.5 µM) of 0.203. For the same molecule, the relative viability (NCI-H460; first compound 0.005 µM) was 0.509, the relative viability (NCI-H460; first compound 0.01581 µM) was 0.514 and the relative viability (NCI-H460; first compound 0.05 µM) was 0.231. It also gave a relative viability (NCI-H460; first compound 0.1581 µM) of 0.0385, a relative viability (NCI-H460; first compound 0.5 µM) of 0.0239 and a relative viability (LOU-NH91; first compound 0.005 µM) of 0.996. The relative viability (LOU-NH91; first compound 0.01581 µM) was 0.904, the relative viability (LOU-NH91; first compound 0.05 µM) was 0.82 and the relative viability (LOU-NH91; first compound 0.1581 µM) was 0.54. It also gave a relative viability (LOU-NH91; first compound 0.5 µM) of 0.566, a relative viability (UMC-11; first compound 0.005 µM) of 0.637 and a relative viability (UMC-11; first compound 0.01581 µM) of 0.637. The relative viability (UMC-11; first compound 0.05 µM) was 0.424, the relative viability (UMC-11; first compound 0.1581 µM) was 0.246 and the relative viability (UMC-11; first compound 0.5 µM) was 0.226. The relative viability (ABC-1; first compound 0.005 µM) was 0.699, the relative viability (ABC-1; first compound 0.01581 µM) was 0.99 and the relative viability (ABC-1; first compound 0.05 µM) was 0.909. It also gave a relative viability (ABC-1; first compound 0.1581 µM) of 0.71, a relative viability (ABC-1; first compound 0.5 µM) of 0.487 and a relative viability (NCI-H3122; first compound 0.005 µM) of 0.995. It also gave a relative viability (NCI-H3122; first compound 0.01581 µM) of 0.893, a relative viability (NCI-H3122; first compound 0.05 µM) of 0.948 and a relative viability (NCI-H3122; first compound 0.1581 µM) of 0.72. The relative viability (NCI-H3122; first compound 0.5 µM) was 0.476, the relative viability (NCI-H1651; first compound 0.005 µM) was 0.916 and the relative viability (NCI-H1651; first compound 0.01581 µM) was 0.98. The relative viability (NCI-H1651; first compound 0.05 µM) was 1.11, the relative viability (NCI-H1651; first compound 0.1581 µM) was 0.468 and the relative viability (NCI-H1651; first compound 0.5 µM) was 0.327. It also gave a relative viability (NCI-H1944; first compound 0.005 µM) of 1.1, a relative viability (NCI-H1944; first compound 0.01581 µM) of 0.492 and a relative viability (NCI-H1944; first compound 0.05 µM) of 0.424. For the same molecule, the relative viability (NCI-H1944; first compound 0.1581 µM) was 0.216, the relative viability (NCI-H1944; first compound 0.5 µM) was 0.195 and the relative viability (HCC-78; first compound 0.005 µM) was 0.538. It also gave a relative viability (HCC-78; first compound 0.01581 µM) of 0.457, a relative viability (HCC-78; first compound 0.05 µM) of 0.432 and a relative viability (HCC-78; first compound 0.1581 µM) of 0.275. It also gave a relative viability (HCC-78; first compound 0.5 µM) of 0.132, a relative viability (NCI-H2405; first compound 0.005 µM) of 0.933 and a relative viability (NCI-H2405; first compound 0.01581 µM) of 0.714. The relative viability (NCI-H2405; first compound 0.05 µM) was 0.661, the relative viability (NCI-H2405; first compound 0.1581 µM) was 0.498 and the relative viability (NCI-H2405; first compound 0.5 µM) was 0.383. For the same molecule, the relative viability (HCC-366; first compound 0.005 µM) was 0.725, the relative viability (HCC-366; first compound 0.01581 µM) was 0.393 and the relative viability (HCC-366; first compound 0.05 µM) was 0.178. It also gave a relative viability (HCC-366; first compound 0.1581 µM) of 0.0468, a relative viability (HCC-366; first compound 0.5 µM) of 0.0253 and a relative viability (NCI-H2228; first compound 0.005 µM) of 0.675. The relative viability (NCI-H2228; first compound 0.01581 µM) was 0.546, the relative viability (NCI-H2228; first compound 0.05 µM) was 0.492 and the relative viability (NCI-H2228; first compound 0.1581 µM) was 0.152. For the same molecule, the relative viability (NCI-H2228; first compound 0.5 µM) was 0.0885, the relative viability (LU99A; first compound 0.005 µM) was 0.621 and the relative viability (LU99A; first compound 0.01581 µM) was 0.577. For the same molecule, the relative viability (LU99A; first compound 0.05 µM) was 0.561, the relative viability (LU99A; first compound 0.1581 µM) was 0.508 and the relative viability (LU99A; first compound 0.5 µM) was 0.47. The relative viability (NCI-H1395; first compound 0.005 µM) was 0.89, the relative viability (NCI-H1395; first compound 0.01581 µM) was 0.709 and the relative viability (NCI-H1395; first compound 0.05 µM) was 0.784. The relative viability (NCI-H1395; first compound 0.1581 µM) was 0.466, the relative viability (NCI-H1395; first compound 0.5 µM) was 0.38 and the relative viability (PC-3 [JPC-3]; first compound 0.005 µM) was 0.889. It also gave a relative viability (PC-3 [JPC-3]; first compound 0.01581 µM) of 0.903, a relative viability (PC-3 [JPC-3]; first compound 0.05 µM) of 0.866 and a relative viability (PC-3 [JPC-3]; first compound 0.1581 µM) of 0.691. For the same molecule, the relative viability (PC-3 [JPC-3]; first compound 0.5 µM) was 0.65, the relative viability (NCI-H1755; first compound 0.005 µM) was 0.936 and the relative viability (NCI-H1755; first compound 0.01581 µM) was 0.873. The relative viability (NCI-H1755; first compound 0.05 µM) was 0.858, the relative viability (NCI-H1755; first compound 0.1581 µM) was 0.31 and the relative viability (NCI-H1755; first compound 0.5 µM) was 0.271. For the same molecule, the relative viability (NCI-H2087; first compound 0.005 µM) was 0.958, the relative viability (NCI-H2087; first compound 0.01581 µM) was 1.07 and the relative viability (NCI-H2087; first compound 0.05 µM) was 0.827. It also gave a relative viability (NCI-H2087; first compound 0.1581 µM) of 0.752, a relative viability (NCI-H2087; first compound 0.5 µM) of 0.623 and a relative viability (RERF-LC-KJ; first compound 0.005 µM) of 0.771. For the same molecule, the relative viability (RERF-LC-KJ; first compound 0.01581 µM) was 0.787, the relative viability (RERF-LC-KJ; first compound 0.05 µM) was 0.757 and the relative viability (RERF-LC-KJ; first compound 0.1581 µM) was 0.474. The relative viability (RERF-LC-KJ; first compound 0.5 µM) was 0.458.
